Two compounds from patent publication US6271384A, “Self-assembled taxo-diterpenoid nanostructures” (The Scripps Research Institute, priority 1998, dated 2001) can be followed below.

Data set [1] deals with human leukemia. Kind of data set: Cytotoxicity, human leukemia (XTT). Particulars: 72 hours. Background: Tetrazolium dyes change colour on reduction, which living cells bring about.
Procedure: (§2) More particularly, cells were plated on 96 well plates with the following controls: no cells and toxic control (1×10^-3 M SDS). The drug was added to the first set of wells and diluted via standard dilution method from the stock. Plates were incubated at 37° C., 5% CO2 in sterile air in an humidified incubator for 72 hours. An aliquot of 50 μL of a solution of 2,3-bis(methoxy-4-nitro-5-sulfophenyl)-5-[(phenylamino)carbonyl]-1H-tetrazolium hydroxide (XTT), 1 mg mL^-1, in phosphate buffered saline (PBS, 100 mM) was added to the wells. In the presence of viable cells, this colorless clear media is enzymatically altered to give a pink coloration. The plates were read at 450 nm using a plate reader. Percentage cytotoxicity was calculated using the formula: %C=1-(OD toxin)(OD growth control)^-1 (100).
In data set [2] the test system is cervical carcinoma. Kind of data set: Cytotoxicity, cervical carcinoma (XTT). Conditions: 72 hours.
Procedure: as §2
Data set [3] concerns metastatic melanoma. In words: Cytotoxicity, metastatic melanoma (XTT). Conditions: 72 hours.
Procedure: as §2
Data set [4] deals with tubulin. Kind of data set: Microtubule (tubulin) polymerization-depolymerization measurements. The data set is classed as biochemical. Conditions: for suppression of calcium chloride promoted depolymerization: 10^-6 M, CaCl2 0.25 mM, 1.0 mM GTP, 37° C. Here is the method: Tubulin polymerization-depolymerization measurements are illustrate in FIG. 3. Negative controls are shown with triangles; positive taxol controls are shown with diamonds; and taxol-2'-MPT, i.e., compound 2 is shown with dots.
More particularly, measurement were performed in 96 well plates at 37° C. following the protocol of R. Merlock and W. Wrasidlo (Analytical Biochemistry 1993, in press). Calcium chloride addition is indicated by the arrow. In each case, 1.0 mM GTP was used to promote the initial polymerization of tubulin. Negative control employed tubulin (1.0 mg/mL) alone, CaCl2 (0.25 mM) added after 20 minutes. Positive taxol control employed tubulin (1.0 mg/mL) with taxol (10^-6 M) and CaCl2 (0.25 mM) added after 20 minutes. The experimental taxol-2'-MPTemployed tubulin (1.0 mg/mL) with taxol-2'-MPT (10^-6) and CaCl2 (0.25 mM) added after 20 minutes. Turbidity was measured as optical density at 340 nm using a microplate reader (Molecular Devices Thermomax).

Data set [5] has as its system serum albumen. In words: Displacement of the MPT group by serum albumen. An excerpt: (§1) However, the release of taxol from taxol-2'-MPT can also be catalyzed by serum protein and by proteins having nucleophilic groups. […] Dialysis of the protein:taxol intermediate indicates a dissociation period of hours or days. Displacement of the MPT group by serum proteins seems to be specific for such serum proteins. […] The precise nature of the bonding between the protein and taxol has not been characterized. Scheme 2 illustrates alternative pathways for MPT release.

The nature of data set [6]: Self-assembly: optical density at 340 nm, light scattering and TEM. The class given is physicochemical. The text has this: Transmission electron microscopy (TEM) confirmed the presence of supramolecular structures in these solutions. […] It is likely that the long term stability of these solutions is due, at least in part, to stabilization provided by this structured environment.

The nature of data set [7]: Kinetics of taxol release / breakdown in plasma (HPLC). The class given is in vitro ADME, human. Conditions: methylene chloride extraction, 25° C.
Data set [8] has as its system leukemia, ovarian, lung, and breast carcinoma cells. In words: Cytotoxicity against a cell line panel (XTT).
Procedure: More particularly, cells were plated on 96 well plates with the following controls: no cells and toxic control (1×10^-3 M SDS). The drug was added to the first set of wells and diluted via standard dilution method from the stock. Plates were incubated at 37° C., 5% CO2 in sterile air in an humidified incubator for 72 hours. An aliquot of 50 μL of a solution of 2,3-bis(methoxy-4-nitro-5-sulfophenyl)-5-[(phenylamino)carbonyl]-1H-tetrazolium hydroxide (XTT), 1 mg mL^-1, in phosphate buffered saline (PBS, 100 mM) was added to the wells. In the presence of viable cells, this colorless clear media is enzymatically altered to give a pink coloration. […] Percentage cytotoxicity was calculated using the formula: %C=1-(OD toxin)(OD growth control)^-1 (100).
A short description of data set [9]: Stability measurements of taxol-2'-MPT by HPLC (solid state and aqueous media). The data set is classed as physicochemical. The protocol:
Due to a difference in retention time using our standard HPLC conditions (see FIG. 1) and differing ultraviolet absorption maxima (l280 /l254 =1.6 for 2 and 0.3 for 1), the stability of 2 was easily assayed by HPLC (FIG. 1). […] In phosphate buffered saline (PBS) or ammonium acetate-phosphate buffer systems of pH 6.0 to 7.3, 2 is stable at 25° C. for over 21 days. Taxol-2'-MPT (2) is, however, unstable in 5% HCl (pH 1.1) and brine.
Under these conditions 20% of total is recovered. More particularly, Taxol-2'-MPT (2) was dissolved in the aqueous system with the aid of sonication for five minutes. Aliquots were then removed at the times shown and partitioned into methylene chloride to quench the reaction. Samples were then analyzed using a Waters Maxima HPLC instrument equipped with an autoinjector (3.9×300 mm C18 column equipped with a precolumn. The flow rate was 1.5 mL/minute. The eluent gradient A-B extended over 30 minutes. "A" was 80% 80 mM ammonium acetate, pH 6.0. "B" was 100% methanol. An ultraviolet diode array detector was employed. The ratio of compound 2 (Rf 16.2 min.) to taxol (compound 1, Rf 16.8 min.) remaining was determined from the relative areas of the peaks after normalization with previously determined calibration curves.

For data set [10], the system named is non-serum proteins. Kind of data set: Displacement of the MPT group by non-serum proteins. Particulars: tested non-serum proteins.
Source text: as §1

Data set [11] concerns immunoglobulins. In words: Displacement of the MPT group by immunoglobulins.
Source text: as §1

How the values of data set [12] were obtained:
The solubility and partition coefficient data for 2 and taxol were determined using an HPLC method.
Solubility was found by forming a solution in water with the aid of sonication for five minutes, centrifugation of the samples, and injection of the supernatant. The values reported were normalized using calibration curves constructed for both compounds by preparing known concentrations in the range 1×10^-6 to 1×10^-3 M in methylene chloride and subjecting to HPLC analysis under the same conditions. […] Partition coefficients were determined by dissolving the compound in the organic phase, shaking the resulting solution with water for ten minutes, and analyzing each phase by HPLC as above.

In data set [13] the test system is A549 non-small cell lung adenocarcinoma xenograft. In words: Efficacy in lung tumor xenograft nude mouse model.
Procedure: The tumor model was generated from an ATCC A549 non-small cell lung adenocarcinoma cell line that was maintained under the standard cell proliferation conditions (37° C., 5% carbon dioxide in sterile air). Hemocytometer counted cells suspended in Hanks medium (Gibco, Grand Island, N.Y.) were implanted S.C.
Data set [14] has as its system serum protein. Kind of data set: Displacement of the MPT group by serum protein and dialysis of the protein:taxol intermediate.
Source text: as §1

Counter-ions that a name gives are not always drawn.

For `CC(=O)O[C@H]1C(=O)[C@@]2(C)[C@H]([C@H](OC(=O)c3ccccc3)[C@]3(O)C[C@H](OC(=O)[C@H](O)[C@@H](NC(=O)c4ccccc4)c4ccccc4)C(C)=C1C3(C)C)[C@]1(OC(C)=O)CO[C@@H]1C[C@@H]2O` [Taxol, taxol], the “cytotoxicity level, human leukemia” value in [1] is reported as “Extremely high cytotoxicity levels”. Also, the “cytotoxicity level, cervical carcinoma” value in [2] is “Extremely high cytotoxicity levels”. Further, the “cytotoxicity level, metastatic melanoma” value in [3] is “Extremely high cytotoxicity levels”. For the same compound, in [4], the “suppression of calcium chloride promoted depolymerization” value is reported as “suppressed by taxol”.

Regarding `CC(=O)O[C@H]1C(=O)[C@@]2(C)[C@H]([C@H](OC(=O)c3ccccc3)[C@]3(O)C[C@H](OC(=O)[C@H](Oc4cccc[n+]4C)[C@@H](NC(=O)c4ccccc4)c4ccccc4)C(C)=C1C3(C)C)[C@]1(OC(C)=O)CO[C@@H]1C[C@@H]2O` [Compound 2, Taxol-2'-MPT (methylpyridinium tosylate)], the “displacement of MPT group by serum albumen” value in data set [5] was “particularly effective”. Besides, in data set [6] (OD at 340 nm), the “critical concentration (exponential increase in optical density; critical aggregation concentration)” value was determined as 400 µM. Further, in data set [6] (TEM), the “diameter of helical fibrillar structures” value is listed as “ca. 80 Å”, the helical twist result is given as “about 7” and the “length of helical fibrillar structures” value is recorded as “up to 800 Å”. Besides, in data set [6] (buffered solutions), the “concentration above which buffered solutions exhibit haze and diffuse scattering” value is given as “greater than 1×10^-3 M”. In data set [6] (water, all concentrations examined), the “appearance of water solutions” value is listed as “optically clear at all concentrations examined”. Also, the “time to complete conversion of 2 into taxol in plasma” value in data set [7] was no more than 10 min. The “cytotoxicity (discussion statement)” value in [8] is listed as “lack of cytotoxicity”. For the same compound, the differential cytotoxicity profile entry in data set [8] (2 compared with taxol) is on record as “similar, although some differences were noted”. The “stability in 5% HCl” value in data set [9] (5% HCl (pH 1.1)) is recorded as “unstable”. Further, the stability in brine entry in [9] (brine) is given as “unstable”. Also, the “stability in most aqueous media” value in data set [9] (most aqueous media) is “remarkably stable compound in most aqueous media”. Further, the “stability in phosphate buffered saline or ammonium acetate-phosphate buffer” value in data set [9] (pH 6.0 to 7.3, 25° C.) is “over 21 days”. Also, the “stability in aqueous media at physiological pH and ion strength” value in data set [9] (physiological pH and ion strength) is on record as “essentially completely stable”. Also, in data set [9] (sterile water, pH 6.2 phosphate buffered saline or 5% dextrose, 25° C., 11 minutes), the “taxol release in aqueous solutions” value is “no taxol release is observed over a period of 11 minutes”. The “displacement of MPT group by non-serum proteins” value in data set [10] is listed as “seemed to lack this activity”. The “displacement of MPT group by immunoglobulins” value in data set [11] is given as “particularly effective”. In data set [12], the “degradation during solubility and partition studies” value is recorded as “No degradation”; the “solubility in aqueous systems relative to clinically relevant dosages” value is recorded as “higher than the clinically relevant dosages (3 to 30 mM)”; the “water solubility relative to taxol” value is “significantly more soluble in water than the parent taxol”. The “control of tumor growth” value in data set [13] (I.P. day 1,3, and 7, 2 23.9 mg/kg, taxol 18.0 mg/kg, preliminary data) is listed as “at least comparable to that of taxol”. Moreover, the “conversion to taxol in vivo” value in data set [13] (inferred from xenograft results) was “converted rapidly to taxol in vivo”. For the same compound, in [14] (contacted with serum protein), the “displacement of MPT group / formation of protein:taxol intermediate” value was “observed to displace its MPT group and form a protein:taxol intermediate”. Also, the “dissociation period of protein:taxol intermediate” value in data set [14] (dialysis) is “hours or days”. The “suppression of calcium chloride promoted depolymerization” value in data set [4] is reported as “not by taxol-2'-MPT”. Further, the “conversion to taxol in assay buffer” value in data set [4] (buffered aqueous environment of this assay) was “not converted to taxol”. Further, in data set [4] (compared with GTP-saline controls and taxol), the microtubule polymerization-depolymerization profile entry was “very similar to GTP-saline controls and drastically different from taxol”. Also, the binding to tubulin entry in data set [4] (inferred from polymerization assay) is given as “does not appear to bind to tubulin in the manner of taxol”.
